Results from patent US12098134B2, “Benzo-heterocyclic compound and composition for preventing or treating cancer disease, containing same as active ingredient” (INDUSTRY ACADEMIC COOPERATION FOUNDATION KEIMYUNG UNIVERSITY, priority 2018, dated 2024).

Tests used:
[1] = system: cervical cancer cell line HeLa; test: Anti-proliferative activity in HeLa cell line; type: cell-based; conditions: Homo sapiens
[2] = system: lung cancer cell line A549; test: Anti-proliferative activity in A549 cell line; type: cell-based; conditions: Homo sapiens
SH-SY5Y cells = test: Soft agar colony formation assay; type: cell-based, human; conditions: cultured 1-2 weeks
Protocol: Anchorage-independent cell growth is a characteristic of cell carcinogenesis and indicates the ability of transformed cells to grow independently of a solid surface. The soft agar colony formation assay is a widely used method to measure the capability of anchorage-independent cell growth in vitro. Thus, the suppressive effect of Compound 9b on Anchorage-independent cell growth by soft agar colony formation assay.
SH-SY5Y cells were seeded in a 6-well plate with 1.2% agar (4×10^5 cells/well) and Compound 9b was added at concentrations of 1 μM, 3 μM and 5 μM and cultured for 1-2 weeks. DMSO (0.5%) was used as a negative control. After incubation, colonies were stained using by 0.05% crystal violet for 10 minutes. The colonies were washed by 3rd distilled water and captured.

[3] = system: breast cancer cell line MDA-MB-231; test: Anti-proliferative activity in breast cancer cell line MDA-MB-231; type: cell-based; conditions: MDA-MB-231 cell line
Source text: Anti-proliferative activity against breast cancer cell line MDA-MB-231 was investigated using the compounds synthesized through the above Examples 1 to 4.

[4] = system: non-small cell lung cancer cell line H1975; test: Anti-proliferative activity in H1975 cell line; type: cell-based; conditions: Homo sapiens, NCI-H1975
[5] = system: human neuroblastoma cell line SH-SY5Y; test: Anti-proliferative activity in SH-SY5Y cell line; type: cell-based; conditions: half maximal growth inhibition concentration, after 72 hours
Protocol: Anti-proliferative activity against human neuroblastoma cell line SH-SY5Y, an in vitro model of human malignant metastatic neuroblastoma, was investigated using the compounds synthesized through the above Examples 1 to 4.
SH-SY5Y cells were cultured in DMEM (Dulbecco's Modified Eagle's Media) with L-glutamine supplemented with […] of streptomycin, 100 units/mL of penicillin and 10% fetal bovine serum (FBS). The cells were grown to confluence in a humidified atmosphere (37° C., 5% CO2).

GI50 ([3]; Homo sapiens) | SMILES | also measured
3.86 µM | O=C(NO)c1ccc(-c2nc3ccccc3s2)cc1 [Compound 9b, 4-(benzo[d]thiazol-2-yl)-N-hydroxybenzamide] | GI50 [1]: 13.5 µM; GI50 [2]: 15.6 µM; ability of SH-SY5Y cells to form colonies (SH-SY5Y cells; 1 μM, 3 μM and 5 μM): decreased in a dose-dependent manner; anchorage-independent cell growth of SH-SY5Y neuroblastoma (SH-SY5Y cells; 3 μM): almost completely inhibited; GI50 [4]: 3.71 µM
40.3 µM | Cn1c(-c2ccc(C(=O)NO)cc2)nc2ccccc21 [Compound 6a, N-hydroxy-4-(1-methyl-1H-benzo[d]imidazol-2-yl)benzamide] | –
15.6 µM | O=C(NO)c1ccc(-c2nc3ccccc3[nH]2)cc1 [Compound 5, 4-(1H-benzo[d]imidazol-2-yl)-N-hydroxybenzamide] | –
44.6 µM | CCCn1c(-c2ccc(C(=O)NO)cc2)nc2ccccc21 [Compound 6c, N-hydroxy-4-(1-propyl-1H-benzo[d]imidazol-2-yl)benzamide] | –
47.9 µM | O=C(NO)c1cccc(-c2nc3ccccc3o2)c1 [Compound 17a, 3-(Benzo[d]oxazol-2-yl)-N-hydroxybenzamide] | –
23.1 µM | O=C(NO)c1cccc(-c2nc3ccccc3s2)c1 [Compound 17b, 3-(benzo[d]thiazol-2-yl)-N-hydroxybenzamide] | –
– | O=C(NO)c1cccc(-c2nc3ccccc3[nH]2)c1 [Compound 13, 3-(1H-benzo[d]amidazol-2-yl)-N-hydroxybenzamide] | GI50 [3]: > 100 µM; GI50 [5]: > 100 µM
35.5 µM | CCCCn1c(-c2ccc(C(=O)NO)cc2)nc2ccccc21 [Compound 6d, 4-(1-butyl-1H-benzo[d]imidazol-2-yl)-N-hydroxybenzamide] | –
60.8 µM | CCCCn1c(-c2cccc(C(=O)NO)c2)nc2ccccc21 [Compound 14d, 3-(1-Butyl-1H-benzo[d]imidazol-2-yl)-N-hydroxybenzamide] | –
62.1 µM | CCCn1c(-c2cccc(C(=O)NO)c2)nc2ccccc21 [Compound 14c, N-hydroxy-3-(1-propyl-1H-benzo[d]imidazol-2-yl)benzamide] | –
> 100 µM | CCn1c(-c2cccc(C(=O)NO)c2)nc2ccccc21 [Compound 14b, 3-(1-Ethyl-1H-benzo[d]imidazol-2-yl)-N-hydroxybenzamide] | –
> 100 µM | Cn1c(-c2cccc(C(=O)NO)c2)nc2ccccc21 [Compound 14a, N-hydroxy-3-(1-methyl-1H-benzo[d]imidazol-2-yl)benzamide] | –
– | O=C(CCCCCCC(=O)Nc1ccccc1)NO [SAHA, reference compound] | GI50 [3]: 3.16 µM; GI50 [5]: 2.9 µM
8.31 µM | O=C(NO)c1ccc(-c2nc3ccccc3o2)cc1 [Compound 9a, 4-(benzo[d]oxazol-2-yl)-N-hydroxybenzamide] | –
15.6 µM | CCn1c(-c2ccc(C(=O)NO)cc2)nc2ccccc21 [Compound 6b, 4-(1-ethyl-1H-benzo[d]imidazol-2-yl)-N-hydroxybenzamide] | –
